Measurements as given in PMC12655252, “Synthesis of 1H-Pyrrolo[3,2-g]isoquinoline Derivatives as Ligands Targeting Haspin Kinase” (Molecules, 2025).

Key:
Assay type in all cases: biochemical
[1] = molecular target: T1, HsCLK1 (Homo sapiens, UniProt P49759); assay: ADP-Glo in vitro kinase inhibition assay, CLK1; settings: 10 μM ATP; for remaining activity at 1 µM: 1 μM compound; for remaining activity at 1 µM / remaining activity at 10 µM: read-out: CLK1 % residual activity; for remaining activity at 10 µM: 10 μM compound
T1 construct: made in house; host or cells: Sf9 insect cells
T1 sequence (P49759 whole entry): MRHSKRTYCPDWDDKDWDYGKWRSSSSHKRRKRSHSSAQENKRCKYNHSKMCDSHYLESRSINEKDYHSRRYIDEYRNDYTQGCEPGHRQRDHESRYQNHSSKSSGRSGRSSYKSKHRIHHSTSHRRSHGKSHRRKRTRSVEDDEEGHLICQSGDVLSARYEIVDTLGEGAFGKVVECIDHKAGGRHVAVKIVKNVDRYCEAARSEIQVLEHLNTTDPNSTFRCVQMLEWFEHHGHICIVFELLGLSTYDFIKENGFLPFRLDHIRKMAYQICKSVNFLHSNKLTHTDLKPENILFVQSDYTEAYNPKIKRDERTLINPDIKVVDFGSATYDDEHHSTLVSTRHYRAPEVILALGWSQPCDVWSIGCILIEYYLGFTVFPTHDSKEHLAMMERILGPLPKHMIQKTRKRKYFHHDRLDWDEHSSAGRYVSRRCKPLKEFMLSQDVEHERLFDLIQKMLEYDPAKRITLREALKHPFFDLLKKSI
Description: (§1) We previouly reported that substitution at the 3-position with halogen atoms or pyridinyl or formyl groups was compatible with high potency toward Haspin kinase. To check if the current structural changes were in line with potent Haspin inhibition and high selectivity, enabling consideration of these compounds as possible targeting ligands for the PROTAC approach, compounds 2, 3, 8–11, and 15–17 were evaluated toward a panel of eight protein kinases, including Haspin, as well as other kinases known to be frequently cross-inhibited (CLK1, DYRK1A, CDK9/Cyclin T, GSK-3β, CK1ε, CDK5/p25, and Pim1) (Table 1). The percentage of residual kinase activity was evaluated at 10 μM and 1 μM compound concentrations. […].
(§2) Kinase inhibition was tested in 384-well plates using the ADP-GloTM assay kit (Promega, Madison, WI, USA) according to the procedure recommended by the manufacturer. Reactions were set up in a final volume of 6 μL in an appropriate kinase buffer (10 mM MgCl2, 1 mM EGTA, 1 mM DTT, 25 mM Tris-HCl pH 7.5, 50 μg/mL heparin) with either protein or peptide as the substrate in the presence of 10 μM ATP. To stop the kinase reaction, 6 μL of ADP-GloTM Kinase Reagent was added after 30 min at 30 °C. Then, after 50 min of incubation at room temperature (RT), 12 μL of Kinase Detection Reagent was added. The transmitted signal was measured after 1 h at RT using the Envision (Perkin Elmer, Waltham, MA, USA) microplate luminometer and expressed in relative light units (RLU). In order to determine the half-maximal inhibitory concentration (IC50), all assays were performed in duplicate in the absence or presence of increasing doses of the tested compounds. GraphPad Prism10 software (GraphPad Software, San Diego, CA, USA) was used to fit dose–response curves and to determine the IC50 values. Kinase activities are given as percentages of maximal activity, i.e., measured in the absence of inhibitor. Peptide substrates were obtained from Proteogenix (Schiltigheim, France).
(§3) The following protein kinases were analyzed in this study: CDK5/p25 (human, vector pGEX-2T, expressed in bacteria; kindly provided by Dr. J. H. Wang) was assayed with 0.8 μg/μL of histone H1 as substrate; HsCDK9/CyclinT (NP_001252/KAI4065659, cloned in pTEFb vector, expressed by baculovirus in Sf9 insect cells) were assayed with 0.27 μg/μL of the following peptide: […], as substrate; HsCK1ε (NP_001885, cloned in pFAST-BAC vector, expressed in Sf9 insect cells) was assayed with 0.022 μg/μL of the following peptide: […]pAYSITA (“Sp” stands for phosphorylated serine) as CK1-specific substrate; HsGSK3β (AAH12760, cloned in pFAST-BAC, expressed by baculovirus in Sf9 insect cells) were assayed with 0.010 μg/μL of GS-1 peptide, a GSK-3-selective substrate ([…]pEDEEE); HsHaspin-kd (NP_114171, kinase domain, amino acids 470–798 cloned in pGEX-6P-3, expressed in bacteria) was assayed with 0.007 μg/μL of histone H3 (1–21) peptide ([…]) as substrate; Pim-1 (KAI4018123, expressed in bacteria) was assayed with 0.8 μg/μL of histone H1 as substrate; HsCLK1 (NP_004062, cloned in pFAST-BAC, expressed in Sf9 insect cells) was assayed with 0.027 μg/μL of the peptide: […]; RnDYRK1A-kd (Rattus norvegicus, amino acids 1–499, pGEX-2TK, expressed in bacteria, gift from Dr. W. Becker, Aachen, Germany) was tested in the presence of 0.033 μg/μL of the peptide: […].

[2] = molecular target: T2, HsCK1ε (Homo sapiens, UniProt P49674); assay: ADP-Glo in vitro kinase inhibition assay, CK1ε; settings: 10 μM ATP, read-out: CK1 % residual activity; for remaining activity at 1 µM: 1 μM compound; for remaining activity at 10 µM: 10 μM compound
T2 construct: made in house; host or cells: Sf9 insect cells
T2 sequence (P49674 whole entry): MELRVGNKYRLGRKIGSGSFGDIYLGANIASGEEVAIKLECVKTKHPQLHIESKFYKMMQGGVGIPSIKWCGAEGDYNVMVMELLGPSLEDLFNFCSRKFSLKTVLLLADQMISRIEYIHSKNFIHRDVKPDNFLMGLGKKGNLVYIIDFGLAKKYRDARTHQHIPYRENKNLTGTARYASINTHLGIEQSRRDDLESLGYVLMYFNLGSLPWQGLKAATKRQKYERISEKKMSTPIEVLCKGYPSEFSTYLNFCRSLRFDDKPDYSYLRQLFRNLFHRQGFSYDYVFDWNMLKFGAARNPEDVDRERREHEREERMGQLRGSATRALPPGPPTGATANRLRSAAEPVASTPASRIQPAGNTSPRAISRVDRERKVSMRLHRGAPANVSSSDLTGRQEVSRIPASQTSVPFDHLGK
Description: as §1, §2, §3

[3] = molecular target: T3, HsGSK3β (Homo sapiens, UniProt P49841); assay: ADP-Glo in vitro kinase inhibition assay, GSK3β; settings: 10 μM ATP, read-out: GSK3 % residual activity; for remaining activity at 1 µM: 1 μM compound; for remaining activity at 10 µM: 10 μM compound
T3 construct: made in house; host or cells: Sf9 insect cells (baculovirus)
T3 sequence (P49841 whole entry): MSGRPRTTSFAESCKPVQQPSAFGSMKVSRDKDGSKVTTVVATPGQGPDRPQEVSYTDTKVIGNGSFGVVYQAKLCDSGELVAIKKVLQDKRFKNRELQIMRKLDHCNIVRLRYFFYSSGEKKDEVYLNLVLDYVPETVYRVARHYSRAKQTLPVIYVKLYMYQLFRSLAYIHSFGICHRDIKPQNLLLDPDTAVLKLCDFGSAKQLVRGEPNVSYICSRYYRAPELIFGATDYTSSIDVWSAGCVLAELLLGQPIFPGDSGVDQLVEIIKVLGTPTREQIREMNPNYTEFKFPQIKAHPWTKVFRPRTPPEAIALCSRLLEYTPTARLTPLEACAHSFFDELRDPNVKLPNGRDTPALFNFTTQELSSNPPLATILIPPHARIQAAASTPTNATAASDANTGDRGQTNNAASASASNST
Description: as §1, §2, §3

[4] = molecular target: T4, RnDYRK1A-kd (Rattus norvegicus, UniProt Q63470); assay: ADP-Glo in vitro kinase inhibition assay, DYRK1A; settings: 10 μM ATP; for remaining activity at 1 µM: 1 μM compound; for remaining activity at 1 µM / remaining activity at 10 µM: read-out: DYRK1A % residual activity; for remaining activity at 10 µM: 10 μM compound
T4 construct: Rattus norvegicus, amino acids 1–499, pGEX-2TK; made in house; host or cells: bacteria
Description: as §1, §2, §3

[5] = molecular target: T5, HsHaspin-kd (Homo sapiens, UniProt Q8TF76); assay: ADP-Glo in vitro kinase inhibition assay, Haspin; settings: for remaining activity at 1 µM: 1 μM compound; for remaining activity at 1 µM / IC50 / remaining activity at 10 µM: 10 μM ATP, duplicate; for remaining activity at 1 µM / remaining activity at 10 µM: read-out: Haspin % residual activity; for remaining activity at 10 µM: 10 μM compound; for SI: selectivity index = IC50 second most inhibited kinase/IC50 Haspin: second most inhibited kinase named in parentheses below the value (PIM1 or CLK1)
T5 construct: kinase domain, amino acids 470–798 cloned in pGEX-6P-3; made in house; host or cells: bacteria
T5 sequence (Q8TF76 470-798): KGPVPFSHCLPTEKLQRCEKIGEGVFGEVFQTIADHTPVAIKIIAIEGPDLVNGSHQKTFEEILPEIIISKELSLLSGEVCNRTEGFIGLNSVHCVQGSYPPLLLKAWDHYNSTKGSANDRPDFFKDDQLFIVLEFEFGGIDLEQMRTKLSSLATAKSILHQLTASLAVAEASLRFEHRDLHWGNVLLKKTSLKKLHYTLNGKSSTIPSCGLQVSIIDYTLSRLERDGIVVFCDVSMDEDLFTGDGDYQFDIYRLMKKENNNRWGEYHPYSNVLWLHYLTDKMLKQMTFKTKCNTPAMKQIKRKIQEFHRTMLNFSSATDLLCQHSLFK
Description: as §1, §2, §3

[6] = molecular target: T6, HsCDK9/CyclinT (Homo sapiens, UniProt P50750); assay: ADP-Glo in vitro kinase inhibition assay, CDK9/CyclinT; settings: 10 μM ATP, read-out: CDK9 % residual activity; for remaining activity at 1 µM: 1 μM compound; for remaining activity at 10 µM: 10 μM compound
T6 construct: made in house; host or cells: Sf9 insect cells (baculovirus)
T6 sequence (P50750 whole entry): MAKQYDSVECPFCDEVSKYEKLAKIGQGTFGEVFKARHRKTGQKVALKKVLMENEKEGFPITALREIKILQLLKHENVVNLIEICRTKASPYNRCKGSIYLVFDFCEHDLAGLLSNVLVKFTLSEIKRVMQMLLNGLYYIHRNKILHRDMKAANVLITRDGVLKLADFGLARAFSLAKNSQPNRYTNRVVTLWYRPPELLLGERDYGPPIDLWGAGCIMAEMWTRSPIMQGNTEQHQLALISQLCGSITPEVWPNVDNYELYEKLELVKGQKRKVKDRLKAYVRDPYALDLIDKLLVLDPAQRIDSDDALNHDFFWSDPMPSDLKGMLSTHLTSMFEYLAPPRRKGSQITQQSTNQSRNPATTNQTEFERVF
T6 sequence (O60563 whole entry partner): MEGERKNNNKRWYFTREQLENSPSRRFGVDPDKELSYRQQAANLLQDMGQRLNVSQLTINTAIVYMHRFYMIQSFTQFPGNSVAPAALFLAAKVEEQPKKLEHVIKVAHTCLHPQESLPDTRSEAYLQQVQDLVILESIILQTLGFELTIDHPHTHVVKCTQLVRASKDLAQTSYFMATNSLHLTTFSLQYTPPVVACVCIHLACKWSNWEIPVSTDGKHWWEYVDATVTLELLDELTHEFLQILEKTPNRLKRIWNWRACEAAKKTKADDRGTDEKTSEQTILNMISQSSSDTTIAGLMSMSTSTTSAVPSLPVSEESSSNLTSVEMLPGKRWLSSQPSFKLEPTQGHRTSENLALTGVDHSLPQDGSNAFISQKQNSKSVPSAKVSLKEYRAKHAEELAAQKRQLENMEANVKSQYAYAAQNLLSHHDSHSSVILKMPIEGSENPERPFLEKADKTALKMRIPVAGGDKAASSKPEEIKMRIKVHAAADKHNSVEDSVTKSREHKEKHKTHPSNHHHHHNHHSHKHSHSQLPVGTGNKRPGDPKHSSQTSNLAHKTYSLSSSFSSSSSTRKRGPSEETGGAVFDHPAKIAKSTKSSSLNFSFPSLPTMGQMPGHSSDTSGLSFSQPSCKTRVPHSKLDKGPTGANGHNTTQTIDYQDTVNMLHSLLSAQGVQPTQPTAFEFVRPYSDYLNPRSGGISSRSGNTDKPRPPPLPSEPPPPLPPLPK
Description: as §1, §2, §3

Row | Compound | remaining activity at 1 µM [1] [%] | IC50 [1] [µM] | remaining activity at 10 µM [1] [%] | remaining activity at 1 µM [2] [%] | remaining activity at 10 µM [2] [%] | remaining activity at 1 µM [3] [%] | remaining activity at 10 µM [3] [%] | remaining activity at 1 µM [4] [%] | IC50 [4] [µM] | remaining activity at 10 µM [4] [%] | remaining activity at 1 µM [5] [%] | IC50 [5] [µM] | remaining activity at 10 µM [5] [%] | SI: selectivity index = IC50 second most inhibited kinase/IC50 Haspin [5] | remaining activity at 1 µM [6] [%] | remaining activity at 10 µM [6] [%]
1 | c1cc2cc3c(-c4cc[nH]n4)c[nH]c3cc2cn1 [Compound 15, 3-(1H-Pyrazol-3-yl)-1H-pyrrolo[3,2-g]isoquinoline] | 32 | 0.503 | 4 | 100 | 48 | 100 | 86 | 39 | 0.324 | 1 | 0 | 0.0306 | 0 | > 7 |  | 
2 | c1c[nH]c(-c2c[nH]c3cc4cnccc4cc23)c1 [Compound 17, 3-(1H-Pyrrol-2-yl)-1H-pyrrolo[3,2-g]isoquinoline] | 47 |  | 36 | 92 | 81 | 71 | 65 | 69 |  | 19 | 6 | 0.0813 | 0 |  | 76 | 39
3 | c1cc2cc3c(-c4cn[nH]c4)c[nH]c3cc2cn1 [Compound 16, 3-(1H-Pyrazol-4-yl)-1H-pyrrolo[3,2-g]isoquinoline] | 4 | 0.102 | 0 | 77 | 12 | 94 | 17 | 11 | 0.163 | 0 | 0 | 0.0124 | 0 | 8.2 |  | 
4 | COC(=O)/C=C/c1c[nH]c2cc3cnccc3cc12 [Compound 8, Methyl (E)-3-(1H-Pyrrolo[3,2-g]isoquinolin-3-yl)prop-2-enoate] | 55 |  | 22 | 90 | 77 | 78 | 71 | 43 | 1.13 | 16 | 11 | 0.0155 | 6 | 26.1 | 79 | 51
5 | Nc1ccc(-c2c[nH]c3cc4cnccc4cc23)cn1 [Compound 3, 5-(1H-Pyrrolo[3,2-g]isoquinolin-3-yl)pyridin-2-amine] | 59 |  | 18 | 78 | 63 | 80 | 58 | 15 | 0.212 | 0 | 7 | 0.0106 | 1 | 8.8 | 83 | 44
